Where two headings read alike, the source gives them in different places.
Assay: Ocular tissue concentrations (aqueous humor, vitreous humor, iris, retina, choroid, cornea) after topical ocular, subcutaneous and intravitreal administration
Format: in vivo, New Zealand White rabbits
Conditions: New Zealand White, rabbit; for concentration at 2 h / concentration at 4 h / concentration at 0.5 h / concentration at 1 h: subcutaneous, 5 mg/kg/dose, subcutaneous 5 mg/kg/dose; for concentration at 6 hr / concentration at 24 hr / concentration at 48 hr / concentration at 72 hr: other: intravitreal, 2.5 mg/eye
Description: To measure the concentration of Compound 1 in plasma and ocular tissues following topical ocular, subcutaneous, and intravitreal administration, New Zealand White rabbits were administered Compound 1, and plasma and ocular samples were collected at pre-determined time points. Compound 1 formulations were prepared fresh on each day of dosing.
Ocular tissue samples from both eyes of each animal were collected and weights were recorded. Plasma and ocular tissue sample concentrations of Compound 1 were determined by LC-MS/MS.
New Zealand White rabbits weighing 2.5 to 3.5 kg were used on this study. Rabbits were housed one per cage. Animals were not fasted and only healthy animals with no ocular illness were used. Two rabbits per group were sacrificed at each of four ocular tissue sampling time points for a total of eight rabbits per group.
Animals were anesthetized for ocular (topical) and intravitreal dosing following the 12IA7 IACUC protocol. Each rabbit received a bolus dose of test formulation either via topical ocular administration 3 times daily on Days 1 and 2 (at 0, 6, and 12 hours), and once on Day 3 (at 0 hours) into both eyes; via intravitreal administration into both eyes once on Day 1 (at 0 hours); or via subcutaneous administration 2 times daily on Days 1 and 2 (at 0 and 8 hours) and once daily on Day 3 (at 0 hours). Doses were given within an approximately 1 hour window each day where applicable.
On Day 1, for intravitreal administration, or on Day 3, for topical ocular and subcutaneous administration, at the appropriate ocular tissue collection time points, animals were euthanized and both eyes were enucleated immediately. Following enucleation, each eye was rinsed with phosphate-buffered saline. Ocular tissue samples from both eyes of each animal were collected at predetermined time points and weights were recorded. All the samples were frozen immediately on dry ice, and stored at −60° C. to −80° C. pending bioanalysis.
An LC-MS/MS method was developed for the determination of Compound 1 in rabbit aqueous tissues (plasma, aqueous and vitreous humor) and solid ocular tissue samples. A pre-study standard curve was analyzed to determine the specificity, range, and lower limit of quantitation of the method. Plasma and tissue homogenate study samples were extracted and analyzed. All the samples were treated identically to the standards.
One eight-point standard curve was used in each analytical batch. To be accepted, each batch must have had at least five of eight standards with accuracy within ±20% of nominal, except at the lower limit of quantification (LLOQ), where ±25% was acceptable.
Concentration versus time data is plotted in FIGS. 3-16. All data are expressed as ng/g of the free drug. Samples that were below the limit of quantitation (0.2 ng/mL) were not used in the calculation of averages.

[1] = choroid, TABLE 16: Choroid, free acid, Group 3, read-out: Choroid Average
[2] = cornea homogenate, Cornea homogenate, OD, sodium salt, intravitreal 2.5 mg/eye, Group 4, read-out: Cornea Conc. (ng/mL) OD
[3] = cornea homogenate, Cornea homogenate, OS, sodium salt, intravitreal 2.5 mg/eye, Group 4, read-out: Cornea Conc. (ng/mL) OS
[4] = cornea homogenate, Cornea homogenate, right eye, intravitreal 2.5 mg/eye (group 5), individual animals, read-out: Conc. (ng/mL) OD
[5] = cornea homogenate, Cornea homogenate, left eye, intravitreal 2.5 mg/eye (group 5), individual animals, read-out: Conc. (ng/mL) OS
[6] = cornea homogenate, Cornea homogenate, OD, free acid, Group 3, read-out: Cornea Conc. (ng/mL) OD
[7] = cornea homogenate, Cornea homogenate, OS, free acid, Group 3, read-out: Cornea Conc. (ng/mL) OS
[8] = cornea homogenate, Cornea homogenate, OS, sodium salt, Group 2, read-out: Cornea Conc. (ng/mL) OS
[9] = cornea homogenate, Cornea homogenate, OD, sodium salt, Group 2, read-out: Cornea Conc. (ng/mL) OD
[10] = cornea homogenate, TABLE 16: Cornea homogenate, OD, free acid, Group 3, read-out: Cornea Conc. (ng/mL) OD
[11] = cornea homogenate, TABLE 16: Cornea homogenate, OS, free acid, Group 3, read-out: Cornea Conc. (ng/mL) OS
[12] = cornea, Cornea, OD, sodium salt, intravitreal 2.5 mg/eye, Group 4, read-out: Cornea Conc. (ng/g) OD
[13] = cornea, Cornea, OS, sodium salt, intravitreal 2.5 mg/eye, Group 4, read-out: Cornea Conc. (ng/g) OS
[14] = cornea, Cornea, average, intravitreal 2.5 mg/eye (group 5), read-out: Avg.
[15] = cornea, Cornea, right eye, intravitreal 2.5 mg/eye (group 5), individual animals, read-out: Conc. (ng/g) OD
[16] = cornea, Cornea, sodium salt, intravitreal 2.5 mg/eye, Group 4, read-out: Cornea Avg.
[17] = cornea, Cornea, left eye, intravitreal 2.5 mg/eye (group 5), individual animals, read-out: Conc. (ng/g) OS
[18] = cornea, Cornea, OD, free acid, Group 3, read-out: Cornea Conc. (ng/g) OD
[19] = cornea, Cornea, OS, sodium salt, Group 2, read-out: Cornea Conc. (ng/g) OS
[20] = cornea, Cornea, free acid, Group 3, read-out: Cornea Average
[21] = cornea, Cornea, sodium salt, Group 2, read-out: Cornea Average
[22] = cornea, Cornea, OD, sodium salt, Group 2, read-out: Cornea Conc. (ng/g) OD
[23] = cornea, TABLE 16: Cornea, OD, free acid, Group 3, read-out: Cornea Conc. (ng/g) OD
[24] = cornea, TABLE 16: Cornea, free acid, Group 3, read-out: Cornea Average

COC(=O)N[C@@H](Cc1ccccc1)C(=O)N[C@@H](Cc1ccc(NS(=O)(=O)O)cc1)c1csc(-c2cccs2)n1 [Compound 1]
concentration at 2 h (choroid, TABLE 16: Choroid, OS, free acid, Group 3, read-out: Choroid Conc. (ng/g) OS): 53.2 ng/g
concentration at 2 h [1]: 47.7 ng/g
concentration at 4 h (choroid, TABLE 16: Choroid, OD, free acid, Group 3, read-out: Choroid Conc. (ng/g) OD): 53 ng/g
concentration at 4 h [1]: 61 ng/g
concentration at 6 hr [2]: 6300 ng/mL
concentration at 6 hr [3]: 6940 ng/mL
concentration at 6 hr [4]: 7910 ng/mL
concentration at 24 hr [2]: 2180 ng/mL
concentration at 24 hr [3]: 1560 ng/mL
concentration at 24 hr [5]: 1190 ng/mL
concentration at 24 hr [4]: 1520 ng/mL
concentration at 48 hr [2]: 1050 ng/mL
concentration at 48 hr [3]: 662 ng/mL
concentration at 48 hr [5]: 293 ng/mL
concentration at 48 hr [4]: 437 ng/mL
concentration at 0.5 h [6]: 0.55 ng/mL
concentration at 0.5 h [7]: 0.897 ng/mL
concentration at 0.5 h [8]: 2.46 ng/mL
concentration at 1 h [6]: 1.11 ng/mL
concentration at 1 h [9]: 2.37 ng/mL
concentration at 1 h [8]: 4.52 ng/mL
concentration at 2 h [6]: 0.514 ng/mL
concentration at 2 h [8]: 0.998 ng/mL
concentration at 4 h [6]: 0.942 ng/mL
concentration at 4 h [9]: 0.752 ng/mL
concentration at 4 h [7]: 2.51 ng/mL
concentration at 4 h [8]: 0.784 ng/mL
concentration at 0.5 h [10]: 0.55 ng/mL
concentration at 0.5 h [11]: 0.897 ng/mL
concentration at 1 h [10]: 1.11 ng/mL
concentration at 2 h [10]: 0.514 ng/mL
concentration at 4 h [10]: 0.942 ng/mL
concentration at 4 h [11]: 2.51 ng/mL
concentration at 6 hr [12]: 69300 ng/g
concentration at 6 hr [13]: 76300 ng/g
concentration at 6 hr [14]: 54600 ng/g
concentration at 6 hr [15]: 87000 ng/g
concentration at 6 hr [16]: 71400 ng/g
concentration at 24 hr [12]: 24000 ng/g
concentration at 24 hr [13]: 17200 ng/g
concentration at 24 hr [14]: 17300 ng/g
concentration at 24 hr [17]: 13100 ng/g
concentration at 24 hr [15]: 16700 ng/g
concentration at 24 hr [16]: 23700 ng/g
concentration at 48 hr [12]: 11600 ng/g
concentration at 48 hr [13]: 7280 ng/g
concentration at 48 hr [14]: 4630 ng/g
concentration at 48 hr [17]: 3220 ng/g
concentration at 48 hr [15]: 4810 ng/g
concentration at 48 hr [16]: 7530 ng/g
concentration at 72 hr [14]: 762 ng/g
concentration at 72 hr [16]: 421 ng/g
concentration at 0.5 h [18]: 6.05 ng/g
concentration at 0.5 h (cornea, Cornea, OS, free acid, Group 3, read-out: Cornea Conc. (ng/g) OS): 9.87 ng/g
concentration at 0.5 h [19]: 27.1 ng/g
concentration at 0.5 h [20]: 7.96 ng/g
concentration at 0.5 h [21]: 19.4 ng/g
concentration at 1 h [18]: 12.2 ng/g
concentration at 1 h [22]: 26.1 ng/g
concentration at 1 h [19]: 25.3 ng/g
concentration at 1 h [20]: 12.2 ng/g
concentration at 1 h [21]: 31.1 ng/g
concentration at 2 h [18]: 5.65 ng/g
concentration at 2 h [22]: 11.7 ng/g
concentration at 2 h [19]: 11 ng/g
concentration at 2 h [20]: 5.65 ng/g
concentration at 2 h [21]: 9.45 ng/g
concentration at 4 h [18]: 10.4 ng/g
concentration at 4 h [22]: 8.27 ng/g
concentration at 4 h [19]: 8.62 ng/g
concentration at 4 h [20]: 15.8 ng/g
concentration at 4 h [21]: 10.1 ng/g
concentration at 0.5 h [23]: 6.05 ng/g
concentration at 0.5 h (cornea, TABLE 16: Cornea, OS, free acid, Group 3, read-out: Cornea Conc. (ng/g) OS): 9.87 ng/g
concentration at 0.5 h [24]: 7.96 ng/g
concentration at 1 h [23]: 12.2 ng/g
concentration at 1 h [24]: 12.2 ng/g
concentration at 2 h [23]: 5.65 ng/g
concentration at 2 h [24]: 5.65 ng/g

Reference: patent publication US11666558B2, “Methods of treating intraocular pressure with activators of Tie-2” (EyePoint Pharmaceuticals, Inc., priority 2015, dated 2023)
